For orientation: AUC(0-t) means exposure summed from dosing to a finite time, without extrapolation to infinity. What is called Cmax is the highest concentration seen after dosing. Broadly, the half-life is how long it takes for the measured level to halve. The Tmax is the time at which the peak concentration occurs.

A short description of data set [1]: Identification and relative content of absorbed components of IPE in plasma (UPLC-MS). In kind it is in vivo, SD rats. Conditions: oral IPE 13.5 g/kg, peak area normalization. The text has this:
A total of 83 male SD rats, SPF grade, six weeks old, body mass (200 ± 10 g), were purchased from Hunan SJA Laboratory Animal Co., Ltd. (Haodan Science and Technology Park, No.99 Changchong Road, Longping High-tech Park, Furong District, Changsha City, China), Animal License No. SCXK (Hunan) 2019-0004. The animal experiments were approved by the Animal Ethics Committee of Guangxi University of Chinese Medicine (Approval No. DW20220220-117). After one week of adaptive feeding, the animals were randomly divided into eight groups of 10 animals according to weight stratification: normal control group (Con), natural bovine type II collagen model group (CII), wind-dampness cold bi-syndrome model group (WCM), wind-dampness heat bi-syndrome model group (WHM), wind-dampness cold bi-syndrome + Ipomoea pes-caprae group (WCM + IPE), wind-dampness heat bi-syndrome + Ipomoea pes-caprae group (WHM + IPE), wind-dampness cold bi-syndrome + Duhuo group (WCM + DH) (Duhuo formula granules), and wind-dampness heat bi-syndrome + Fangji group (WHM + FJ) (Fangji formula granules). Another three rats were randomly selected as the normal administration group (Con + IPE), and the absorbed components in plasma were studied in vivo. The oral dose of IPE was 13.5 g/kg, and the dosing volume was 20 mL/kg. The oral doses of Duhuo formula granules and Fangji formula granules were 9.0 g/kg, with a dosing volume of 20 mL/kg for each. The blank control group and each model group were administered an equal volume of distilled water by oral gavage. The administration was performed once daily for 28 consecutive days.
Rats were fasted for 12 h before administration but not deprived of water, then weighed and administered. A total of 0.2 mL of blood was collected from the orbit at 5 min, 30 min, 45 min, 1 h, 2 h, 4 h, 6 h, 8 h, and 12 h after the end of gavage administration and placed in a centrifuge tube with a preservative anticoagulant (1.5% EDTA aqueous solution, 1.5 mL). The samples were centrifuged at 4 °C for 10 min at 4000 rpm to separate the plasma. The supernatant was transferred to a new centrifuge tube and stored in a refrigerator at −80 °C for the detection of absorbed components in plasma and pharmacokinetics. In addition, after the end of the entire experimental cycle, blood was taken from the abdominal aorta of the rat. The blood samples were kept at room temperature for 2 h, then centrifuged at 4 °C at 3000 rpm for 10 min, and the upper serum was aspirated. The samples were stored at −80 °C in a low-temperature refrigerator for TNF-α, IL-6 detection, and metabolomics detection.
Ultra-high liquid chromatograph (model: ExionLC AC, manufacturer: SCIEX Corporation, USA) and QTOF mass spectrometer (model: X500R, manufacturer: SCIEX Corporation, USA), Waters ACQUITY UPLC HSS T3 C18 column (1.8 μm, 2.1 × 100 mm) was used as the mobile phase for the separation of 0.1% formic acid aqueous solution (A)-acetonitrile (B) as a mobile phase, gradient elution (0~30 min, 5%~95% B); volume flow rate of 0.4 mL/min; injection volume: 3 μL, column temperature: 40 °C. Ion source: dual-spray TurboV, positive and negative ion scanning, TOF MS scanning range of m/z 100~1500, positive/negative ion source voltage of […], ion source temperature: 600 °C, GS1: 55 psi, GS2: 55 psi, air curtain gas pressure: 35 psi, parent ion collision energy: ±10 V, de-cluster voltage (DP): ±80 V, daughter ion collision energy (CE): ±35 V.
Expressed as mean ± standard deviation ( x¯ ± s) and processed by GraphPad Prism 8.4.3 statistical software, statistical comparisons were evaluated by one-way ANOVA, followed by the Student–Newman–Keuls post hoc test. The difference was statistically significant with p < 0.05 and p < 0.01. […]

Another data set concerns RA-FLS. Also noted: method as in PMID 28463788. Conditions: by blocking phosphorylation of IκB and IκB kinases; cited from earlier work.
The nature of data set [2]: Pharmacokinetics of absorbed components of IPE in plasma. Type of data set: in vivo, SD rats. Conditions: component of orally given IPE, n = 6; for MRT last: read-out: MRT0~t. The source says:
(Haodan Science and Technology Park, No.99 Changchong Road, Longping High-tech Park, Furong District, Changsha City, China), Animal License No. SCXK (Hunan) 2019-0004. The animal experiments were approved by the Animal Ethics Committee of Guangxi University of Chinese Medicine (Approval No. DW20220220-117). After one week of adaptive feeding, the animals were randomly divided into eight groups of 10 animals according to weight stratification: normal control group (Con), natural bovine type II collagen model group (CII), wind-dampness cold bi-syndrome model group (WCM), wind-dampness heat bi-syndrome model group (WHM), wind-dampness cold bi-syndrome + Ipomoea […] group ([…]), wind-dampness heat bi-syndrome + Ipomoea […] group ([…]), wind-dampness cold bi-syndrome + Duhuo group (WCM + DH) (Duhuo formula granules), and wind-dampness heat bi-syndrome + Fangji group (WHM + FJ) (Fangji formula granules). […] The oral dose of IPE was 13.5 g/kg, and the dosing volume was 20 mL/kg. The oral doses of Duhuo formula granules and Fangji formula granules were 9.0 g/kg, with a dosing volume of 20 mL/kg for each. The blank control group and each model group were administered an equal volume of distilled water by oral gavage. […] The supernatant was transferred to a new centrifuge tube and stored in a refrigerator at -80 °C for the detection of absorbed components in plasma and pharmacokinetics. In addition, after the end of the entire experimental cycle, blood was taken from the abdominal aorta of the rat. The blood samples were kept at room temperature for 2 h, then centrifuged at 4 °C at 3000 rpm for 10 min, and the upper serum was aspirated. The samples were stored at -80 °C in a low-temperature refrigerator for TNF-α, IL-6 detection, and metabolomics detection. In order to further elaborate on the in vivo pharmacokinetic characteristics of IPE, this study selected caffeic acid, protocatechuic acid, and ferulic acid as the research objects to explore their in vivo absorption and metabolism characteristics. In addition, syringic acid was chosen as the internal standard. […] Use A as 0.1% acetic acid aqueous solution (A) acetonitrile (B) as the mobile phase, with gradient elution (0-6 min, 5-20% B; 6-10 min, 20-40% B), a volume flow of 0.4 mL/min, a column temperature of 40 °C, and an injection volume of 3 μL. Ion source: electrospray ion source (ESI), negative ion mode collection, simultaneous measurement by multiple reaction monitoring (MRM) mode.

For the next data set, the system named is LTB4. Also noted: method as in PMID 27826169. Conditions: cited from earlier work.
The next data set deals with JAK/STAT pathway. Conditions: modulating CRP, RF, TNF-α, TGF-β levels; cited from earlier work.
The test system of data set [3] is NF-κB and Akt/mTOR signaling pathways. On the set-up: method as in PMID 32510258. Conditions: cited from earlier work.
The subject of data set [4] is tyrosine kinases on fibroblast-like synoviocytes (FLS). Conditions: cited from earlier work.
The mark [5] stands for this setting: male, SD, rat, plasma, po, 13.5 g/kg, Con + IPE group.
Where [6] appears, read: male, SD, rat, plasma, po, 13.5 g/kg, Con + IPE group, read-out: Tmax.
The mark [7] stands for this setting: male, SD, rat, plasma, po, 13.5 g/kg, WCM + IPE group.
Setting [8] is: male, SD, rat, plasma, po, 13.5 g/kg, WCM + IPE group, read-out: Tmax.
[9] abbreviates: male, SD, rat, plasma, po, 13.5 g/kg, WHM + IPE group.
[10] abbreviates: male, SD, rat, plasma, po, 13.5 g/kg, WHM + IPE group, read-out: Tmax.

Where two headings read alike, the source gives them in different places.

On to `O=C(O)/C=C/c1ccc(O)c(O)c1` [Caffeic acid], for which the “Relative Content of absorbed component in plasma” value (“Relative Content” below) in data set [1] (Con + IPE group (normal rats)) is 33.04%; in data set [1] (WCM + IPE group) it was 30.2%; in data set [1] (WHM + IPE group) it was 34.24%. Also, in the data set with RA-FLS, the “IL-6 and TNF-α, inflammatory response in RA-FLS” value is “inhibits IL-6 and TNF-α”. The figures for the area under the curve AUC(0-t) in data set [2] (setting [5]), in data set [2] (setting [7]) and in data set [2] (setting [9]) were 2080 ± 349 ng·h/mL, 1130 ± 163 ng·h/mL and 2300 ± 410 ng·h/mL, respectively. The Cmax in data set [2] (setting [5]) was 703 ± 190 ng/mL; in data set [2] (setting [7]), 342 ± 123 ng/mL; in data set [2] (setting [9]) it was 709 ± 194 ng/mL. Also, the results for the half-life in data set [2] (setting [5]), in data set [2] (setting [7]) and in data set [2] (setting [9]) were 4.51 ± 3.03 h, 2.82 ± 1.07 h and 3.82 ± 2.55 h, respectively. Moreover, the MRT last is 4.18 ± 1.82 h in data set [2] (setting [5]), 3.32 ± 0.35 h in data set [2] (setting [7]) and 4.53 ± 1.34 h in data set [2] (setting [9]). Besides, the time to peak (Tmax) is 0.85 ± 0.22 h in data set [2] (setting [6]), 0.62 ± 0.14 h in data set [2] (setting [8]) and 0.93 ± 0.12 h in data set [2] (setting [10]).

In the case of `O=c1ccc2ccccc2o1` [Coumarin], the “Relative Content” value in data set [1] (WCM + IPE group) worked out at 1.77%.

As to `O=c1ccc2cc(O)c(O)cc2o1` [Esculetine], the “Relative Content” value turned out to be 0.39% in data set [1] (Con + IPE group (normal rats)), 0.5% in data set [1] (WCM + IPE group) and 0.58% in data set [1] (WHM + IPE group). Moreover, the LTB4 levels entry in the data set with LTB4 was “decreasing LTB4 levels”.

With `COc1cc(/C=C/C(=O)O)ccc1O` [Ferulic acid], the “Relative Content” value came out at 17.23% in data set [1] (Con + IPE group (normal rats)), 20.09% in data set [1] (WCM + IPE group) and 17.71% in data set [1] (WHM + IPE group). In the data set with JAK/STAT pathway, the “JAK/STAT pathway-mediated RA” value is recorded as “inhibits JAK/STAT pathway-mediated RA”. In addition, the time of peak concentration (Tmax) in data set [2] (WCM + IPE group) came out at 0.33 ± 0.12 h; in data set [2] (setting [6]) it was 0.45 ± 0.1 h; in data set [2] (setting [10]), 0.7 ± 0.27 h. Also, the AUC(0-t) in data set [2] (setting [5]) amounted to 60.6 ± 27.3 ng·h/mL; in data set [2] (setting [7]), 34.9 ± 22.6 ng·h/mL; in data set [2] (setting [9]), 104 ± 41.2 ng·h/mL. Besides, the results for the Cmax in data set [2] (setting [5]), in data set [2] (setting [7]) and in data set [2] (setting [9]) were 35.8 ± 10.9 ng/mL, 26.1 ± 11.6 ng/mL and 38.8 ± 16.2 ng/mL, respectively. Moreover, the half-life is 1.51 ± 0.51 h in data set [2] (setting [5]), 1.02 ± 0.46 h in data set [2] (setting [7]) and 1.31 ± 0.32 h in data set [2] (setting [9]). Besides, the MRT last was 1.3 ± 0.28 h in data set [2] (setting [5]), 1.05 ± 0.35 h in data set [2] (setting [7]) and 2.27 ± 0.42 h in data set [2] (setting [9]).

Take `COc1cc2oc(=O)ccc2cc1O` [Isoscopoletin]: the “Relative Content” value in data set [1] (Con + IPE group (normal rats)) is 2.7%; in data set [1] (WCM + IPE group), 7.8%; in data set [1] (WHM + IPE group) it was 5%.

As for `COC(=O)/C=C/c1ccc(O)c(O)c1` [Methyl caffeate acid], the results for the “Relative Content” value in data set [1] (Con + IPE group (normal rats)), in data set [1] (WCM + IPE group) and in data set [1] (WHM + IPE group) were 1.57%, 2.45% and 2.02%, respectively.

As for `O=C(O)c1ccc(O)c(O)c1` [Protocatechuic acid], the “Relative Content” value in data set [1] (Con + IPE group (normal rats)) is 1.04%; in data set [1] (WCM + IPE group), 1.14%; in data set [1] (WHM + IPE group), 0.84%. In data set [3], the “secretion of MMP-3, MMP-13, TNF-α, IL-1β, and IL-6” value is given as “inhibits the secretion”. For the same compound, the AUC(0-t) in data set [2] (setting [5]) stood at 504 ± 177 ng·h/mL; in data set [2] (setting [7]), 194 ± 100 ng·h/mL; in data set [2] (setting [9]) it was 307 ± 98.3 ng·h/mL. Moreover, the Cmax was 269 ± 90.2 ng/mL in data set [2] (setting [5]), 121 ± 77.4 ng/mL in data set [2] (setting [7]) and 145 ± 53.2 ng/mL in data set [2] (setting [9]). In addition, the half-life is 1.93 ± 1.01 h in data set [2] (setting [5]), 1.46 ± 0.32 h in data set [2] (setting [7]) and 1.25 ± 0.36 h in data set [2] (setting [9]). The MRT last amounted to 1.9 ± 0.42 h in data set [2] (setting [5]), 1.59 ± 0.38 h in data set [2] (setting [7]) and 1.83 ± 0.24 h in data set [2] (setting [9]). In addition, the time of peak concentration (Tmax) in data set [2] (setting [6]) worked out at 0.66 ± 0.25 h; in data set [2] (setting [8]) it was 0.41 ± 0.12 h; in data set [2] (setting [10]), 0.62 ± 0.14 h.

`O=Cc1ccc(O)c(O)c1` [Protocatechuic aldehyde]: the “Relative Content” value in data set [1] (WCM + IPE group) is recorded as 1.68%.

Take `COc1cc2ccc(=O)oc2cc1O` [Scopoletin]: the “Relative Content” value is 5.83% in data set [1] (Con + IPE group (normal rats)), 4.71% in data set [1] (WCM + IPE group) and 5.56% in data set [1] (WHM + IPE group). The “NF-κB signaling in fibroblast-like synoviocytes” value in data set [4] is reported as “block NF-κB signaling”.

For the compound `O=C(O)c1ccc(O)cc1` [p-Hydroxybenzoic acid], the “Relative Content” value in data set [1] (Con + IPE group (normal rats)) is given as 38.2%; in data set [1] (WCM + IPE group), 29.65%; in data set [1] (WHM + IPE group), 34.04%.

The values above are taken from PMC11944037, “Investigating the Mechanism of Action of Ipomoea pes-caprae in the Treatment of Rheumatoid Arthritis Based on Serum Metabolomics and Network Pharmacology” (Marine Drugs, 2025).
